Measurements: US20200016159A1, “N3-CYCLICALLY SUBSTITUTED THIENOURACILS AND USE THEREOF” (Bayer Aktiengesellschaft, priority 2016, published 2020)

molecular target: T1, human adenosine A2b receptor (Homo sapiens, UniProt P29275); test: Cellular in vitro reporter gene test for A2b receptor activity (antagonism of NECA); assay type: cell-based; parameters: expressed in transfected cells; host or cells: CHO-K1 (Chinese hamster ovary) with CRE-luciferase reporter; conditions: recombinant CHO-K1 cells, CRE-luciferase reporter, co-incubation with EC50 concentration of NECA, 3 hours
T1 sequence (P29275 1-332): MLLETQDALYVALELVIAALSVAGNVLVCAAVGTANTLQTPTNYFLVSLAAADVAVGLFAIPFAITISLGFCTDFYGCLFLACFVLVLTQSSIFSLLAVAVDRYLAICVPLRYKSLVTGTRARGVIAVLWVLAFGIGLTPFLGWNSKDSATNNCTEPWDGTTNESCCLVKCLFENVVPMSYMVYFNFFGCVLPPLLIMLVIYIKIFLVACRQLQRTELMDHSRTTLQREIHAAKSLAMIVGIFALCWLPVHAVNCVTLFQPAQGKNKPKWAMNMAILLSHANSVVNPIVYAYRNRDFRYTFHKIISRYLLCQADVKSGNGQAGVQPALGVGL
In short: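 CHO-K1 cells expressing recombinant human A2b receptor plus a CRE-driven firefly luciferase reporter. Compounds co-incubated with NECA at its same-day EC50 concentration; luminescence read 3 hours after NECA addition. IC50 values, sometimes means of several determinations rounded to two significant figures.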

Point of comparison: `Cc1c(Cn2nc[nH]c2=O)sc2c1c(=O)n([C@H]1C[C@@H]1C)c(=O)n2CC1CC(F)(F)C1` [Example 328, 1-[(3,3-Difluorocyclobutyl)methyl]-5-methyl-3-[(1S,2S)-2-methylcyclopropyl]-6-[(5-oxo-4,5-dihydro-1H-1,2,4-triazol-1-yl)methyl]thieno[2,3-d]pyrimidine-2,4(1H,3H)-dione], IC50 4.9 nM. Against it:
- COCCn1c(=O)n(C2CC2)c(=O)c2c(C)c(CN3CCNC3=O)sc21 [Example 24, 3-Cyclopropyl-1-(2-methoxyethyl)-5-methyl-6-[(2-oxoimidazolidin-1-yl)methyl]thieno[2,3-d]pyrimidine-2,4(1H,3H)-dione] — 5.9-fold higher, 29 nM
- Cc1c(CN2CCNC2=O)sc2c1c(=O)n([C@H]1C[C@@H]1C)c(=O)n2CC1CCC(F)(F)C1 (stereo partly drawn) [Example 255, 1-[(3,3-Difluorocyclopenty)methy]-5-methyethyl-3-[(S,2S)-2-methylcyclopropyl]-6-[(2-oxoimidazolidin-1-yl)methyl]thieno[2,3-d]pyrimidine-2,4(1H,3H)-dione] — within 1.5-fold, 6.7 nM
- COCCn1c(=O)n(C2(C(F)(F)F)CC2)c(=O)c2c(C)c(Cn3nc[nH]c3=O)sc21 [Example 89, 1-(2-Methoxyethyl)-5-methyl-6-[(5-oxo-4,5-dihydro-1H-1,2,4-triazol-1-yl)methyl]-3-[1-(trifluoromethyl)cyclopropyl]thieno[2,3-d]pyrimidine-2,4(1H,3H)-dione] — 240-fold higher, 1200 nM
- Cc1c(CN2CCNC2=O)sc2c1c(=O)n(C1CC1C)c(=O)n2CCSC(F)(F)F (single isomer, unassigned) [Example 280, 5-Methyl-3-(2-methylcyclopropyl)-6-[(2-oxoimidazolidin-1-yl)methyl]-1-{2-[(trifluoromethyl)sulfanyl]ethyl}thieno[2,3-d]pyrimidine-2,4(1H,3H)-dione] — within 1.5-fold, 3.4 nM
- Cc1c(Cn2nc[nH]c2=O)sc2c1c(=O)n(C1CC1C)c(=O)n2CCOC(F)(F)F (racemic) [Example 276, 5-Methyl-3-(2-methylcyclopropyl)-6-[(5-oxo-4,5-dihydro-1H-1,2,4-triazol-1-yl)methyl]-1-[2-(trifluoromethoxy)ethyl]thieno[2,3-d]pyrimidine-2,4(1H,3H)-dione] — 2.5-fold lower, 2 nM
- Cc1c(Cn2nc[nH]c2=O)sc2c1c(=O)n([C@H]1C[C@@H]1C)c(=O)n2CCCF [Example 322, 1-(3-Fluoropropyl)-5-methyl-3-[(1S,2S)-2-methylcyclopropyl]-6-[(5-oxo-4,5-dihydro-H-1,2,4-triazol-1-yl)methyl]thieno[2,3-d]pyrimidine-2,4(1H,3H)-dione] — 2.9-fold higher, 14 nM
- Cc1c(CN2CCNC(=O)C2=O)sc2c1c(=O)n(C1CC1)c(=O)n2CCC(F)(F)F [Example 13, 3-Cyclopropyl-6-[(2,3-dioxopiperazin-1-yl)methyl]-5-methyl-1-(3,3,3-trifluoropropyl)thieno[2,3-d]pyrimidine-2,4(1H,3H)-dione] — within 1.5-fold, 4 nM
- Cc1c(CN2CCNC2=NC#N)sc2c1c(=O)n(C1CC1)c(=O)n2CCCF [Example 7, [1-{[3-Cyclopropyl-1-(3-fluoropropyl)-5-methyl-2,4-dioxo-1,2,3,4-tetrahydrothieno[2,3-d]pyrimidin-6-yl]methyl}imidazolidin-2-ylidene]cyanamide] — 3.7-fold higher, 18 nM
- Cc1c(Cn2nc[nH]c2=O)sc2c1c(=O)n(C1(C)CC1)c(=O)n2CCOC(C)C [Example 80, 1-(2-Isopropoxyethyl)-5-methyl-3-(1-methylcyclopropyl)-6-[(5-oxo-4,5-dihydro-H-1,2,4-triazol-1-yl)methyl]thieno[2,3-d]pyrimidine-2,4(1H,3H)-dione] — 150-fold higher, 740 nM
- CCCn1c(=O)n(C2CC2C)c(=O)c2c(C)c(CN3CCNC3=O)sc21 (single isomer, unassigned) [Example 229, 5-Methyl-3-(2-methylcyclopropyl)-6-[(2-oxoimidazolidin-1-yl)methyl]-1-propylthieno[2,3-d]pyrimidine-2,4(1H,3H)-dione] — 4.1-fold lower, 1.2 nM
- Cc1c(Cn2nc[nH]c2=O)sc2c1c(=O)n(C1CC1)c(=O)n2CC1CCC(F)(F)C1 (racemic) [Example 209, 3-Cyclopropyl-1-[(3,3-difluorocyclopentyl)methyl]-5-methyl-6-[(5-oxo-4,5-dihydro-1H-1,2,4-triazol-1-yl)methyl]thieno[2,3-d]pyrimidine-2,4(1H,3H)-dione] — 41-fold higher, 200 nM
- Cc1c(CN2CCNC2=O)sc2c1c(=O)n(C1CC1C)c(=O)n2CCC(F)(F)F (single isomer, unassigned) [Example 240, 5-Methyl-3-(2-methylcyclopropyl)-6-[(2-oxoimidazolidin-1-yl)methyl]-1-(3,3,3-trifluoropropyl)thieno[2,3-d]pyrimidine-2,4(1H,3H)-dione] — 2-fold lower, 2.4 nM
- Cc1c(Cn2nc[nH]c2=O)sc2c1c(=O)n(C1CCCC1)c(=O)n2CCC(F)(F)F [Example 188, 3-Cyclopentyl-5-methyl-6-[(5-oxo-4,5-dihydro-1H-1,2,4-triazol-1-yl)methyl]-1-(3,3,3-trifluoropropyl)thieno[2,3-d]pyrimidine-2,4(1H,3H)-dione] — 20-fold higher, 100 nM
- Cc1c(CN2CCNC2=O)sc2c1c(=O)n(C1(C)CC1)c(=O)n2C [Example 52, 1,5-Dimethyl-3-(1-methylcyclopropyl)-6-[(2-oxoimidazolidin-1-yl)methyl]thieno[2,3-d]pyrimidine-2,4(1H,3H)-dione] — 3.9-fold higher, 19 nM
- Cc1c(Cn2cc[nH]c2=O)sc2c1c(=O)n(C1CC1)c(=O)n2CC1CCCO1 (single isomer, unassigned) [Example 48, 3-Cyclopropyl-5-methyl-6-[(2-oxo-2,3-dihydro-H-imidazol-1-yl)methyl]-1-(tetrahydrofuran-2-ylmethyl)thieno[2,3-d]pyrimidine-2,4(1H,3H)-dione] — 11-fold higher, 56 nM
- Cc1c(CN2CCNC2=NC#N)sc2c1c(=O)n(C1(C)CCC1)c(=O)n2CCC(F)(F)F [Example 135, [1-{[5-Methyl-3-(1-methylcyclobutyl)-2,4-dioxo-1-(3,3,3-trifluoropropyl)-1,2,3,4-tetrahydrothieno[2,3-d]pyrimidin-6-yl]methyl}imidazolidin-2-ylidene]cyanamide] — 9.8-fold higher, 48 nM
- CCn1c(=O)n(C2CC2C)c(=O)c2c(C)c(CN3CCNC3=O)sc21 (single isomer, unassigned) [Example 225, 1-Ethyl-5-methyl-3-(2-methylcyclopropyl)-6-[(2-oxoimidazolidin-1-yl)methyl]thieno[2,3-d]pyrimidine-2,4(1H,3H)-dione] — 5.3-fold higher, 26 nM
- Cc1c(CN2CCNC2=O)sc2c1c(=O)n(C1CCC1)c(=O)n2CCC(F)(F)F [Example 110, 3-Cyclobutyl-5-methyl-6-[(2-oxoimidazolidin-1-yl)methyl]-1-(3,3,3-trifluoropropyl)thieno[2,3-d]pyrimidine-2,4(1H,3H)-dione] — 8.3-fold lower, 0.59 nM
- Cc1c(Cn2nc[nH]c2=O)sc2c1c(=O)n(C1CC1)c(=O)n2CC1CCC(F)(F)C1 (single isomer, unassigned) [Example 210, 3-Cyclopropyl-1-[(3,3-difluorocyclopentyl)methyl]-5-methyl-6-[(5-oxo-4,5-dihydro-1H-1,2,4-triazol-1-yl)methyl]thieno[2,3-d]pyrimidine-2,4(1H,3H)-dione] — 41-fold higher, 200 nM
- COCCn1c(=O)n(C2CC2C)c(=O)c2c(C)c(CN3CCNC3=O)sc21 (single isomer, unassigned) [Example 95, 1-(2-Methoxyethyl)-5-methyl-3-(2-methylcyclopropyl)-6-[(2-oxoimidazolidin-1-yl)methyl]thieno[2,3-d]pyrimidine-2,4(1H,3H)-dione] — 5.3-fold higher, 26 nM
- COCCn1c(=O)n(C2(C)CCC2)c(=O)c2c(C)c(CN3CCNC3=NC#N)sc21 [Example 140, [1-{[1-(2-Methoxyethyl)-5-methyl-3-(1-methylcyclobutyl)-2,4-dioxo-1,2,3,4-tetrahydrothieno[2,3-d]pyrimidin-6-yl]methyl}imidazolidine-2-ylidene]cyanamide] — 47-fold higher, 230 nM
- CCC1(n2c(=O)c3c(C)c(Cn4nc[nH]c4=O)sc3n(CCC(F)(F)F)c2=O)CC1 [Example 107, 3-(1-Ethylcyclopropyl)-5-methyl-6-[(5-oxo-4,5-dihydro-1H-1,2,4-triazol-1-yl)methyl]-1-(3,3,3-trifluoropropyl)thieno[2,3-d]pyrimidine-2,4(1H,3H)-dione] — 59-fold higher, 290 nM
- CO[C@H]1C[C@H](n2c(=O)c3c(C)c(CN4CCNC4=NC#N)sc3n(CCC(F)(F)F)c2=O)C1 [Example 145, [1-{[3-(trans-3-Methoxycyclobutyl)-5-methyl-2,4-dioxo-1-(3,3,3-trifluoropropyl)-1,2,3,4-tetrahydrothieno[2,3-d]pyrimidin-6-yl]methyl}imidazolidin-2-ylidene]cyanamide] — 4.7-fold higher, 23 nM
- Cc1c(CN2CCNC2=O)sc2c1c(=O)n(C1CC1(C)C)c(=O)n2CCCF (racemic) [Example 97, 3-(2,2-Dimethylcyclopropyl)-1-(3-fluoropropyl)-5-methyl-6-[(2-oxoimidazolidin-1-yl)methyl]thieno[2,3-d]pyrimidine-2,4(1H,3H)-dione] — 5.3-fold higher, 26 nM
- CCC1CC1n1c(=O)c2c(C)c(Cn3nc[nH]c3=O)sc2n(CCOC)c1=O (single isomer, unassigned) [Example 305, 3-(2-Ethylcyclopropyl)-1-(2-methoxyethyl)-5-methyl-6-[(5-oxo-4,5-dihydro-H-1,2,4-triazol-1-yl)methyl]thieno[2,3-d]pyrimidine-2,4(1H,3H)-dione] — 24-fold higher, 120 nM
